{
  "source": "paper PMC10611828",
  "about": "(European Journal of Nuclear Medicine and Molecular Imaging, 2023)",
  "key": {"[1]": {"assay": "Stability in mouse serum at 37 °C (radio-HPLC)", "type": "in vitro ADME", "conditions": "read-out: intact radiolabeled ligand (RCP)", "procedure": "(§1) The ^177Lu-labeled peptides were incubated in 300-μL phosphate buffered saline (PBS; Gibco, ThermoFisher, The Netherlands) at 37 °C, and their stability was verified after 1, 4, 24, 48, and 72 h by radio-HPLC (Supplementary Fig. 2). The stability in serum was determined by incubating the radiolabeled compounds into 300 μL of mouse serum (Invitrogen, USA) or human serum (Sigma Aldrich, USA) at 37 °C (Supplementary Fig. 3, 4). At each time point post-incubation, 35 μL of the mixture was added to an Eppendorf tube, and the proteins were precipitated by adding an equal volume of acetonitrile. The tubes were centrifuged at 16,000 rpm, 4 °C for 20 min, and the stability was monitored by radio-HPLC, expressed as the RCP at the different time points."}, "[2]": {"assay": "In vivo biodistribution and clearance in PC-3 tumor-bearing mice", "conditions": "male, NMRI-Foxn1 nu/nu, mouse, iv, total radioactivity, i.v.; for tissue uptake at 1 h: 1 h p.i.; for tissue uptake at 4 h: 4 h p.i.; for tissue uptake at 24 h: 24 h p.i.; for tissue uptake at 48 h: 48 h p.i.; for tissue uptake at 72 h: 72 h p.i.", "procedure": "All animal experiments were approved by the Animal Welfare Committee of the Erasmus MC, and all experiments were conducted in accordance to institutional guidelines.\nAt 1, 4, 24, 48, and 72 h post-injection (p.i.), animals were sedated using 2.5% isoflurane in oxygen, and blood was collected via the orbital vein, after which the animals were euthanized using cervical dislocation. Subsequently, the following organs were collected; the tail, tumor, spleen, liver, pancreas, small intestine, colon, coecum, kidneys, lung, and muscle. […] The collected tumor and organs were weighed, and the radioactivity was measured in the gamma counter. The biodistribution data are expressed as percentage injected dose per gram of tissue (% ID/g). Animal numbers per group are indicated in Supplementary Table 1 and 2.\nStatistical analysis was performed using Graphpad Prism version 9.0.0. Outliers were identified using the ROUT method with a Q value of 1%. IC50 curves were determined using non-linear regression."}, "[3]": {"assay": "Stability in human serum at 37 °C (radio-HPLC)", "type": "in vitro ADME", "conditions": "read-out: intact radiolabeled ligand (RCP)", "procedure": "as §1"}, "[4]": {"conditions": "PC-3 tumor, read-out: % uptake PC-3 tumor"}, "[5]": {"conditions": "gastrointestinal tract, read-out: % uptake gastrointestinal tract"}, "[6]": {"conditions": "kidney, read-out: % uptake kidney"}, "[7]": {"conditions": "liver, read-out: % uptake liver"}, "[8]": {"conditions": "muscle, read-out: % uptake muscle"}, "[9]": {"conditions": "pancreas, read-out: % uptake pancreas"}, "[10]": {"conditions": "prostate, read-out: % uptake prostate"}, "[11]": {"conditions": "spleen, read-out: % uptake spleen"}},
  "note": "Where two headings read alike, the source gives them in different places.",
  "data": [
    {"smiles": "CC(C)C[C@H](NC(=O)C[C@H](O)[C@H](CC(C)C)NC(=O)[C@H](Cc1c[nH]cn1)NC(=O)CNC(=O)[C@@H](NC(=O)[C@H](C)NC(=O)[C@H](Cc1c[nH]c2ccccc12)NC(=O)[C@H](CCC(N)=O)NC(=O)[C@@H](Cc1ccccc1)NC(=O)CN1CCC(NC(=O)CN2CCN(CC(=O)O)CCN(CC(=O)O)CCN(CC(=O)O)CC2)CC1)C(C)C)C(N)=O", "note": "[[^177Lu]Lu-RM2, metal not drawn]", "values": [
      {"measurement": "remaining at 1 h", "setting": "[1]; 1 h", "result": "90.9 ± 0.5", "unit": "%"},
      {"measurement": "remaining at 24 h", "setting": "[1]; 24 h", "result": "29.6 ± 1.2", "unit": "%"},
      {"measurement": "remaining at 48 h", "setting": "[1]; 48 h", "result": "17.1 ± 3.5", "unit": "%"},
      {"measurement": "remaining at 72 h", "setting": "[1]; 72 h", "result": "5.3 ± 0.9", "unit": "%"},
      {"measurement": "tissue uptake at 1 h", "setting": "[2]; [4]", "result": "9.27 ± 1.81", "unit": "%ID/g"},
      {"measurement": "tissue uptake at 4 h", "setting": "[2]; [4]", "result": "9.14 ± 0.94", "unit": "%ID/g"},
      {"measurement": "tissue uptake at 24 h", "setting": "[2]; [4]", "result": 7.32, "unit": "%ID/g"},
      {"measurement": "tissue uptake at 48 h", "setting": "[2]; [4]", "result": 5.47, "unit": "%ID/g"},
      {"measurement": "tissue uptake at 72 h", "setting": "[2]; [4]", "result": 2.97, "unit": "%ID/g"},
      {"measurement": "tissue uptake at 1 h", "setting": "[2]; blood, read-out: % uptake blood", "result": 0.3, "unit": "%ID/g"},
      {"measurement": "tissue uptake at 1 h", "setting": "[2]; [5]", "result": 1.75, "unit": "%ID/g"},
      {"measurement": "tissue uptake at 4 h", "setting": "[2]; [5]", "result": 0.56, "unit": "%ID/g"},
      {"measurement": "tissue uptake at 24 h", "setting": "[2]; [5]", "result": 0.05, "unit": "%ID/g"},
      {"measurement": "tissue uptake at 48 h", "setting": "[2]; [5]", "result": 0.03, "unit": "%ID/g"},
      {"measurement": "tissue uptake at 72 h", "setting": "[2]; [5]", "result": 0.01, "unit": "%ID/g"},
      {"measurement": "tissue uptake at 1 h", "setting": "[2]; [6]", "result": 3, "unit": "%ID/g"},
      {"measurement": "tissue uptake at 4 h", "setting": "[2]; [6]", "result": 1.69, "unit": "%ID/g"},
      {"measurement": "tissue uptake at 24 h", "setting": "[2]; [6]", "result": 0.63, "unit": "%ID/g"},
      {"measurement": "tissue uptake at 48 h", "setting": "[2]; [6]", "result": 0.26, "unit": "%ID/g"},
      {"measurement": "tissue uptake at 72 h", "setting": "[2]; [6]", "result": 0.12, "unit": "%ID/g"},
      {"measurement": "tissue uptake at 1 h", "setting": "[2]; [7]", "result": 0.2, "unit": "%ID/g"},
      {"measurement": "tissue uptake at 4 h", "setting": "[2]; [7]", "result": 0.09, "unit": "%ID/g"},
      {"measurement": "tissue uptake at 24 h", "setting": "[2]; [7]", "result": 0.04, "unit": "%ID/g"},
      {"measurement": "tissue uptake at 48 h", "setting": "[2]; [7]", "result": 0.03, "unit": "%ID/g"},
      {"measurement": "tissue uptake at 72 h", "setting": "[2]; [7]", "result": 0.02, "unit": "%ID/g"},
      {"measurement": "tissue uptake at 1 h", "setting": "[2]; lung, read-out: % uptake lungs", "result": 0.3, "unit": "%ID/g"},
      {"measurement": "tissue uptake at 4 h", "setting": "[2]; lung, read-out: % uptake lungs", "result": 0.04, "unit": "%ID/g"},
      {"measurement": "tissue uptake at 24 h", "setting": "[2]; lung, read-out: % uptake lungs", "result": 0.02, "unit": "%ID/g"},
      {"measurement": "tissue uptake at 48 h", "setting": "[2]; lung, read-out: % uptake lungs", "result": 0.01, "unit": "%ID/g"},
      {"measurement": "tissue uptake at 72 h", "setting": "[2]; lung, read-out: % uptake lungs", "result": 0.01, "unit": "%ID/g"},
      {"measurement": "tissue uptake at 1 h", "setting": "[2]; [8]", "result": 0.06, "unit": "%ID/g"},
      {"measurement": "tissue uptake at 4 h", "setting": "[2]; [8]", "result": 0.01, "unit": "%ID/g"},
      {"measurement": "tissue uptake at 24 h", "setting": "[2]; [8]", "result": 0.01, "unit": "%ID/g"},
      {"measurement": "tissue uptake at 1 h", "setting": "[2]; [9]", "result": "14.4 ± 2.56", "unit": "%ID/g"},
      {"measurement": "tissue uptake at 4 h", "setting": "[2]; [9]", "result": "2.07 ± 0.3", "unit": "%ID/g"},
      {"measurement": "tissue uptake at 24 h", "setting": "[2]; [9]", "result": 0.25, "unit": "%ID/g"},
      {"measurement": "tissue uptake at 48 h", "setting": "[2]; [9]", "result": 0.14, "unit": "%ID/g"},
      {"measurement": "tissue uptake at 72 h", "setting": "[2]; [9]", "result": 0.05, "unit": "%ID/g"},
      {"measurement": "tissue uptake at 1 h", "setting": "[2]; [10]", "result": 1.08, "unit": "%ID/g"},
      {"measurement": "tissue uptake at 4 h", "setting": "[2]; [10]", "result": 0.03, "unit": "%ID/g"},
      {"measurement": "tissue uptake at 24 h", "setting": "[2]; [10]", "result": 0.03, "unit": "%ID/g"},
      {"measurement": "tissue uptake at 48 h", "setting": "[2]; [10]", "result": 0.02, "unit": "%ID/g"},
      {"measurement": "tissue uptake at 72 h", "setting": "[2]; [10]", "result": 0.01, "unit": "%ID/g"},
      {"measurement": "tissue uptake at 1 h", "setting": "[2]; [11]", "result": 0.19, "unit": "%ID/g"},
      {"measurement": "tissue uptake at 4 h", "setting": "[2]; [11]", "result": 0.06, "unit": "%ID/g"},
      {"measurement": "tissue uptake at 24 h", "setting": "[2]; [11]", "result": 0.04, "unit": "%ID/g"},
      {"measurement": "tissue uptake at 48 h", "setting": "[2]; [11]", "result": 0.03, "unit": "%ID/g"},
      {"measurement": "tissue uptake at 72 h", "setting": "[2]; [11]", "result": 0.02, "unit": "%ID/g"},
      {"measurement": "remaining at 1 h", "setting": "[3]; 1 h", "result": "96.7 ± 0.7", "unit": "%"},
      {"measurement": "remaining at 4 h", "setting": "[3]; 4 h", "result": "95.5 ± 1.1", "unit": "%"},
      {"measurement": "remaining at 24 h", "setting": "[3]; 24 h", "result": "94.9 ± 1.5", "unit": "%"},
      {"measurement": "remaining at 48 h", "setting": "[3]; 48 h", "result": "92.3 ± 1.9", "unit": "%"},
      {"measurement": "remaining at 72 h", "setting": "[3]; 72 h", "result": "88.4 ± 0.6", "unit": "%"}
    ]}
  ]
}
